Tests used:
[1] = tested on: human perivascular stem cells; assay: Boyden chamber chemotaxis of human perivascular stem cells; assay type: cell-based; conditions: Neuro Probe 48-well chamber, 3 hours, varying concentrations
Method: To confirm the chemotactic activity for progenitor cells within ECM degradation products, human perivascular stem cells were assessed in vitro in a Boyden chamber. The peptides IAGVGGEKSGGF (Peptide 1, SEQ ID NO: 1) and GPVGPSGPPGK (Peptide 2, SEQ ID NO: 2) were tested.
Perivascular stem cells were isolated from human muscle and propagated in culture as previously described (Crisan M, Yap S, Casteilla L, et al. A perivascular origin for mesenchymal stem cells in multiple human organs. Cell Stem Cell. 2008; 3:301-313).
Perivascular stem cells were cultured in Dulbecco's Modified Eagle's Medium (DMEM) supplemented with 20% fetal calf serum (FCS), 2 mM glutamine, 100 U/ml penicillin, and 100 μg/ml streptomycin in […] at 37° C.
Cultures at passages 10-12 and 50-70% confluence were starved in serum-free DMEM supplemented with 0.5% heat inactivated (FCS) for 14-17 hours. After starvation, cells were harvested in 0.25% trypsin and 0.53 mM EDTA, centrifuged, and resuspended in DMEM with 0.5% heat inactivated FCS at a concentration of 6×10^5 cells/ml for 1 hour. […] After 3 hours, cells facing the upper chamber on the filter were scraped off, and cells facing the bottom filter were fixed in methanol, stained with 500 nM DAPI (Sigma, D9564), and counted using ImageJ (NIH).

[2] = tested on: human cortical neuroepithelium stem (CTX) cells; assay: CTX cells chemotaxis assay; assay type: cell-based; conditions: 5 h
Method: (§1) Source of Cells and Culture Conditions: Human perivascular stem cells were obtained as described above and were cultured in high-glucose Dulbecco's modified Eagle's medium (DMEM, Invitrogen) containing 20% fetal bovine serum (FBS; Thermo), 100 U/mL penicillin, and 100 μg/mL streptomycin (Sigma) at 37° C. in 5% CO2. Human cortical neuroepithelium stem (CTX) cells were cultured in DMEM:F12 supplemented with 0.03% Human albumin solution, 100 μg/ml human Apo-Transferrin, 16.2 μg/ml Putrescine DiHCl, 5 μg/ml Insulin, 60 ng/ml Progesterone, 2 mM L-Glutamine, 40 ng/ml Sodium Selinite, 10 ng/ml human bFGF, 20 ng/ml human Epidermal growth factor, and 100 nM 4-Hydroxytestosterone.
CTX Cells Chemotaxis Assay: CTX cells (human cortical neuroepithelium stem cells) were grown to ˜80% confluence, made into a single cell suspension, and the migration of 3×10^4 cells per well towards peptide 1 was assayed over 5 h. Migrated cells were stained by 4′,6-diamidino-2-phenylindole and quantified with ImageJ (NIH). All of the data are means of quadruplicate determinations with standard deviations. The assay was performed on three separate occasions.

[3] = tested on: C57/BL6 mice, amputated third digit; assay: Animal model of digit amputation (in vivo bone formation); set-up: species or system mouse
Method: Animal Model of Digit Amputation: Adult female 6- to 8-week-old C57/BL6 mice (n=4) were subjected to aseptic midsecond phalanx amputation of the third digit on both hind feet. At 0, 24, and 96 h after surgery 15 μL of 10 mM peptide 1 was injected into the footpad below the amputated digit using a 30-gauge needle. A second group of animals (n=4) were treated in the same way except that phosphate buffered saline (PBS) was injected instead of the peptide Animals were killed via cervical dislocation under isoflurane anesthesia at 14 days after surgery. Isolated toes were fixed in 10% neutral buffered formalin (NBF), embedded in paraffin and cut into 5 μm sections, before deparaffinization and staining with Alcian blue at pH 2.5, hematoxylin and eosin (H&E) or Masson's trichrome.

[4] = tested on: human perivascular stem cells; assay: Human perivascular stem cells osteogenic differentiation; assay type: cell-based
Method: as §1
Human Perivascular Stem Cells Osteogenic Differentiation: Confluent perivascular stem cells were cultured in osteogenic differentiation medium (DMEM with 20% FBS, 20 μM ascorbic acid and 1.76 mM β-glycophosphate) and analyzed for the presence of calcium deposits after 4, 7, and 14 days. Calcium deposits were detected via fixation in 10% NBF and staining with 2% Alizarin Red.

IAGVGGEKSGGF (listed as Sus scrofa) [Peptide 1, 12-mer from porcine Collagen type III alpha 1, found in pepsin-digested UBM, chemically synthesized]
Chemotactic activity for progenitor cells [1]: excellent chemotactic activity | Migration of CTX cells compared to media without peptide ([2]; all concentrations of peptide, 3×10^4 cells per well): increased migration | Peptide concentration at which CTX cell migration was highest ([2]; range of concentrations): 1 µM | In vivo bone formation at the amputated digit ([3]; 15 μL of 10 mM peptide injected into footpad at 0, 24, 96 h, tissue at 14 days, H&E/trichrome, vs buffer): formation of a bone like growth on the side of the amputated digit | Alcian blue staining of sulfated glycosaminoglycans (GAG) ([3]; 15 μL of 10 mM peptide into footpad, 14 days, buffer group showed diffuse GAG staining): concentrated GAG positive staining only at the bone nodule | Bone nodules in standard culture medium ([4]; 100 μM peptide, not seen without peptide): caused the formation of bone nodules | Bone nodules in osteogenic differentiation medium ([4]; 1, 10 or 100 μM peptide, vs differentiation medium alone): more bone nodules

GPVGPSGPPGK (listed as Sus scrofa) [Peptide 2, 11-mer from porcine Collagen type III alpha 1, found in pepsin-digested UBM, chemically synthesized]
Chemotactic activity for progenitor cells [1]: excellent chemotactic activity

— patent publication US8716438B2, “Matricryptic ECM peptides for tissue reconstruction” (University of Pittsburgh—Of the Commonwealth System of …, priority 2009, dated 2014)
